Experimental findings from patent US20110166079A1, “METHODS OF TREATING CANCER WITH APOE PEPTIDES” (COGNOSCI, INC., priority 2008, published 2011) are described below.

One assay deals with Jurkat T-cells. Kind of assay: Growth of Jurkat T-cell leukemia cells. Type of assay: cell-based, human. Conditions: 1 μM COG112, FIG. 9. As for the experimental part: To determine whether ApoE peptides could be therapeutic for T-cell leukemia, the effect of COG112 on the growth rate of Jurkat T-cells, a human acute T-cell leukemia cell line, was assessed. Jurkat T-cells (2×10^4 cells per well in a 6 well plate) were grown in 2 mL of media in the absence or presence of 1 μM COG112 added upon plating the cells. Cell growth was measured using a hemacytometer following daily removal of a small aliquot for counting.

A further assay relates to PP2A. Kind of assay: PP2A activity in K562 CML cells (immunoprecipitation / phosphate release). Type of assay: cell-based. Conditions: COG112 0.5 μM or 1 μM, 24 hours, FIG. 8B.

For the substance “Ac-RQIKIWFQNRRMKWKKCLRVRLASHLRKLRKRLL-NH2 (N-terminus and C-terminus assumed) [COG112]”, in the assay with Jurkat T-cells, the “proliferation of Jurkat T-cells” value is listed as “significantly inhibited”. In addition, the PP2A activity result in the assay with PP2A is on record as “robust activation”.
